# US8093299B2, “Methods of treating bowel disorders” (Amgen Inc., priority 2007, dated 2012)
# “And” between values parts separate entries of the source, which are not always exact repeats. Equal entries are not always repeated. Where two headings read alike, the source gives them in different places.
# Assays:
# [1] = system: 5% DSS induced colitis in SJL/J mice; assay: DSS-induced colitis in mice, histopathologic inflammation score of large intestine; assay type: in vivo, mouse; details: 5% DSS 9 days, SJL/J mice; oral; Compound B 10 mg/kg, FK 506 1 mg/kg
# Source text: Animals. Female SJL/J mice aged 8-10 weeks were used for this study, purchased from Jackson Laboratories (Bar Harbour, Me.). Female Spraque-Dawley rats (approximately 150-300 grams) were purchased from Charles River Laboratories Inc. (Wilmington, Mass.). Mdr1a−/− mice (FVB.129P2-Abcb1a^tm1BorN7), weight 20-21 g, 8 weeks at initiation of experiments, were housed and maintained (5 per cage) in the animal facility at Amgen Washington. All animals were cared for according to the standard protocols of the Amgen Institutional Animal Care and Use Committee.
# Chemical reagents. Dextran sodium sulfate (DSS) with molecular mass 36-50 kDa was purchased from ICN Chemicals, Aurora, Ohio. The DSS solution was prepared as a 5% w/v solution in sterile water (Baxter Healthcare Corporation) and sterile filtered through a 0.45 μm filter before being added to drinking water. Water for the negative control groups was similarly filtered. FK506, (also known as Tacrolimus, active ingredient in Prograf®), chemical name [3S-[3R*[E(1S*,3S*,4S*)],4S*,5R*,8S*,9E,12R*,14R*,15S*,16R*,18S*,19S*,26aR*]]-5,6,8,11,12,13,14,15,16,17,18,19,24,25,26,26a-hexadecahydro-5,19-dihydroxy-3-[2-(4-hydroxy-3-methoxycyclohexyl)-1-methylethenyl]-14,16-dimethoxy-4,10,12,18-tetramethyl-8-(2-propenyl)-15,19-epoxy-3H-pyrodi[2,1-c][1,4]oxaazacyclotricosine-1,7,20,21(4H, 23H)-tetrone monohydrate, was used as a positive control for the inflammation treatment. Tacrolimus is a macrolide immunosuppressant produced by Streptomyces tsukubaensis. The solution of FK506 (Prograf®, Astellas) was prepared as follows: 0.1 mg/ml solution in phosphate buffered saline (PBS) was prepared by diluting 5 mg/ml stock solution. The animals were dosed with FK506 at 1 mg/kg in 200 μl of PBS.
# Calcimimetic solutions (Compound A, 3-(2-chlorophenyl)-N-((1R)-1-(3-(methyloxy)phenyl)ethyl)-1-propanamine, Compound B, (1R)-N-((6-(methyloxy)-4′-(trifluoromethyl)-3-biphenylyl)methyl)-1-phenylethanamine, Compound C, N-(2-chloro-5-((((1R)-1-phenylethyl)amino)methyl)phenyl)-5-methyl-3-isoxazolecarboxamide, and Compound D, N-(2-chloro-5-((((1R)-1-phenylethyl)amino)methyl)phenyl)-2-pyridinecarboxamide) were formulated and dosed in free base equivalents at volumes determined by the pharmacologist. Formulation vehicle was 20% (w/v) Captisol (β-Cyclodextrin Sulfobutyl Ether Sodium Salt, Research Grade from CyDex, Inc.) in water with a final pH of 2.0-2.2 at room temperature, adjusted with HCl and NaOH as required. Final concentrations of DMSO never exceeded 0.1% (v/v).
# DSS colitis in mice. All experiments were performed on groups of 8 to 10 SJL-J mice, housed in the same cage. For disease induction, mice were given a 5% DSS ad libitum as drinking water for 9 days.
# Postmortem evaluation. Mice and rats were euthanized by CO2 asphyxiation. The large intestine were removed from the carcass, evaluated for gross lesions and three individual non-adjacent segments of proximal, middle and distal large intestine 2 centimeters long were immersed in the Zinc Formalin fix for 24 hours. At the end of 24 hours the sections were washed with tap water and put into 70% ethanol. Each section was then cut into three 3 mm pieces (9 pieces per animal), processed into paraffin blocks, and sections were cut in 5 μm sections and stained with hematoxylin and eosin.
# Histopathologic changes of the proximal, middle, and distal small and large intestine was scored as a global assessment of inflammation based on inflammatory infiltrate, edema, mucosal erosions or ulcerations as described in Table 6.
# For disease induction, treated mice were given 5% DSS in water ad libitum as drinking water for 9 days as described in Example 1 and were concurrently treated orally during that period with one of the treatments listed in Table 8.
# FIG. 1 and Table 8 summarize the effect of the calcimimetic compound B on colonic inflammation in 5% DSS induced colitis. Animals were euthanized with carbon dioxide on day nine post treatment. […]
# [2] = system: rat unstripped colonic sheets (enteric nervous system activity)
# [3] = system: colitis in mdr1a-/- mice induced by H. bilis; assay: Colitis in mdr1a-/- mice infected with Helicobacter bilis (clinical score, disease onset, histology); assay type: in vivo, mouse
# IP-10 = assay: Serum IP-10 in mdr1a-/- colitis study; assay type: in vivo, mouse; details: treatment groups vs vehicle treated animals
# Protocol: (§1) All mice were necropsied on day 38 post initial inoculation. Mice were euthanized by CO2 asphyxiation. Blood was obtained by intracardiac puncture and collected in serum separator tubes. Serum was harvested and stored at −80° C. Colons were dissected below the cecum and just above the anus, and the contents of the lumen were removed. Sections of the proximal, middle, and distal colon regions were fixed in 10% neutral buffered formalin for histopathological analysis.
# (§2) Serum clinical chemistry analysis was performed on the Olympus AU400 using standard tests and protocols. Calcium and phosphorus measurements were performed on undiluted serum for all samples. Serum cytokines and chemokines were assayed by Lincoplex mouse cytokine/chemokine muliplex immunoassasy (Millipore; Billerica, Mass.) per manufacturer instructions.
# (§3) Results for serum analytes were expressed as the mean±standard error of the mean (SEM). A one-way ANOVA with Tukey's post test was performed using GraphPad Prism. A p-value of 0.05 was used in the calculation to determine whether there were significant differences between any two groups. Results for disease onset were expressed as a standard survival curve. A Log-Rank (Mantel-Cox) Test was performed using GraphPad Prism to determine significance. A p-value of 0.05 was used in the calculation to determine whether there were significant differences between any two groups. Results for clinical score and histology score were expressed as the mean±SEM. A Cochran-Mantel-Haenszel mean score test was performed using SAS software. A p-value of 0.05 was used in the calculation to determine whether there were significant differences between any two groups.
# [4] = Serum calcium and phosphorus in mdr1a-/- colitis study; assay type: in vivo, mouse; details: 10 mg/kg PO daily; day 38
# Protocol: as §1, §2, §3
# [5] = Compound A 10 μM, bumetanide 100 μM, proximal and distal colon
# [6] = 10 mg/kg PO daily, day 38, score 0-4
smiles,measurement,setting,value
"C=CC[C@@H]1/C=C(\C)C[C@H](C)C[C@H](OC)[C@H]2O[C@@](O)(C(=O)C(=O)N3CCCC[C@H]3C(=O)O[C@H](/C(C)=C/[C@@H]3CC[C@@H](O)[C@H](OC)C3)[C@H](C)[C@@H](O)CC1=O)[C@H](C)C[C@@H]2OC (relative stereo) [FK 506, [3S-[3R*[E(1S*,3S*,4S*)],4S*,5R*,8S*,9E,12R*,14R*,15S*,16R*,18S*,19S*,26aR*]]-5,6,8,11,12,13,14,15,16,17,18,19,24,25,26,26a-hexadecahydro-5,19-dihydroxy-3-[2-(4-hydroxy-3-methoxycyclohexyl)-1-methylethenyl]-14,16-dimethoxy-4,10,12,18-tetramethyl-8-(2-propenyl)-15,19-epoxy-3H-pyrodi[2,1-c][1,4]oxaazacyclotricosine-1,7,20,21(4H, 23H)-tetrone monohydrate, reference compound]",Animals with colonic inflammation/total animals,[1],10/10
"COc1cccc([C@@H](C)NCCCc2ccccc2Cl)c1 [Compound A, 3-(2-chlorophenyl)-N-((1R)-1-(3-(methyloxy)phenyl)ethyl)-1-propanamine]","short-circuit current, subsequent addition after 2 μM TTX",[2]; [5],no additional effect
same,"secretory short-circuit current, agent added first","[2]; over 15 minutes, proximal and distal colon, TTX 2 μM, Compound A 10 μM",inhibited the secretory short-circuit current
"NC1=N[C@H](O)[C@H]2[C@H]3O[C@]4(O)O[C@@H]([C@@H](O)[C@@]2(N1)[C@@H]4O)[C@]3(O)CO [TTX, Tetrodotoxin]","secretory short-circuit current, agent added first",[2],inhibited the secretory short-circuit current
same,"short-circuit current, subsequent addition after 10 μM Compound A",[2],no additional effect
"CCCCNc1cc(C(=O)O)cc(S(N)(=O)=O)c1Oc1ccccc1 [bumetanide, Bumetanide]","short-circuit current, subsequent addition after 2 μM TTX",[2]; [5],no additional effect
same,"short-circuit current, subsequent addition after 10 μM Compound A","[2]; TTX 2 μM, bumetanide 100 μM, proximal and distal colon",no additional effect
COc1ccc(CN[C@@H](C)c2ccccc2)cc1-c1ccc(C(F)(F)F)cc1 [S-Compound B],day on which animals began showing clinical symptoms (disease onset),[3]; 10 mg/kg PO daily,27 days
same,number of animals with clinical signs of disease at onset day,"[3]; 10 mg/kg PO daily, day 27, n=5",two
same,Average LI score,"[3]; 10 mg/kg PO daily, day 38",1.8
same,"GI Inflammation LI DISTAL, Segment Mean","[3]; 10 mg/kg PO daily, day 38",0.60
same,"GI Inflammation LI MIDDLE, Segment Mean","[3]; 10 mg/kg PO daily, day 38",0.60
same,"GI Inflammation LI PROXIMAL, Segment Mean","[3]; 10 mg/kg PO daily, day 38",0.60
same,"Total LI score (Max = 12), individual animals","[3]; 10 mg/kg PO daily, day 38",0 (4×) and 9
same,"GI Inflammation LI DISTAL, individual animals",[3]; [6],0 (4×) and 3
same,"GI Inflammation LI MIDDLE, individual animals",[3]; [6],0 (4×) and 3
same,"GI Inflammation LI PROXIMAL, individual animals",[3]; [6],0 (4×) and 3
same,clinical score of the animal with clinical symptoms (max 8),"[3]; 10 mg/kg PO daily, final day",4
same,total large intestine (LI) scores of the colitic animals (max 12),"[3]; R-Compound B 10 and 3 mg/kg groups, S-Compound B 10 mg/kg",9
same,number of animals with clinical symptoms of disease on the final day of the study,"[3]; day 38, per treatment group (S-Compound B 10 mg/kg, n=5; R-Compound B 10 mg/kg and 3 mg/kg, n=10 each)",one
same,animals with colitis / colon pathology by histology,"[3]; per group: R-Compound B 10 and 3 mg/kg each, S-Compound B 10 mg/kg",1 out of 5
same,elevation of serum IP-10,IP-10,less elevation
same,serum calcium levels compared to any other group,[4],not statistically different
same,serum phosphorus compared to CTLA4 treated animals,[4],significant reduction
